Data as given in patent publication US6384061B1, “Hydantoin compounds and methods related thereto” (LG Chemical Ltd., priority 2000, dated 2002).

Experiments:
[1] = target: T1, Ras farnesyl transferase (Homo sapiens, UniProt P49354+P49356); assay: Ras farnesyl transferase inhibiting activity (filter-binding, tritium-farnesylpyrophosphate, Ras-CVLS substrate); format: biochemical; details: recombinant Ras farnesyl transferase, 30 minutes at 37° C., read-out: Ftase IC50
T1 construct: made in house
Method: The enzyme reaction was performed in 50 μl of 50 mM Sodium HEPES buffer solution containing 25 mmol of potassium chloride. 25 mmol of magnesium chloride, 10 mmol of DTT and 50 μmol of zinc chloride. 1.5 μmol of Ras substrate protein, 0.15 μmol of tritium-farnesylpyrophosphate and 4.5 nmol of farnesyl transferase were used.
More specifically, in the initial step, farnesyl transferase was added to the above buffer solution, reaction was maintained for 30 minutes at 37° C. and then the reaction was stopped by adding 1 ml of ethanol solution containing 1M HCl. The formed precipitates were adsorbed to GF/B filter using Hopper harvestor(Hopper #225V) for filter-binding, washed with ethanol, and then radioactivity of the dried filter was measured using LKB β counter. Enzyme titer was measured in the unsaturated state of substrate where the concentrations of Ras substrate protein and farnesyl transferase have quantitative relationship. Enzyme inhibiting activity was measured using less than 5% of total reaction solution of the compound according to the present invention dissolved in dimethylsulfoxide(DMSO) solution as a reagent. Enzyme inhibiting activity was represented by percentage of the amount of the farnesyl incorporated with the reagent to that without the reagent.

[2] = test system: intracellular Ras farnesyl transferase, Rat2 cell line; assay: Intracellular Ras farnesyl transferase inhibiting activity in transformed Rat2 cells (35S-methionine labelling, Y13-259 immunoprecipitation, SDS-PAGE); format: cell-based; details: Rattus norvegicus; transformed Rat2 fibroblast cell line; concentration inhibiting 50% of farnesyl binding of Ras protein; read-out: Ftase CIC50
Method: In the present experiment, Rat2 cell line which expresses C-Harvey-Ras protein having transforming activity and Rat2 cell line(Korean patent application No. 97-14409) which is transformed with fused protein of H-Ras substituted with polybasic lysine domain at C-terminus of K-Ras were used. The experiment was performed by the modified Declue's method(Declue. J. E. et al., Cancer Research, 1991. 51, 712). Hereinafter, the experimental method will be described in more detail.
3×10^5 cells of transformed Rat2 fibroblast cell line were sprayed on 60 mm cell cultivation dish and cultivated for 48 hours in a cell incubator at 37° C. and after 50% or more of density was reached, it was treated with a reagent. The compound according to the present invention dissolved in dimethylsulfoxide(DMSO) was used as the reagent. 1% of dimethylsulfoxide was used in both control and experimental groups. After 4 hours from the treatment of the reagent, methionine labeled with 150 μCi of radioactive isotope, ^35S per 1 ml of medium, was added and after cultivating for 20 hours, the cells were washed with physiological saline water. The cells were lysed using 1 ml of cool cell lysis buffer solution(50 mM of Sodium Herpiss buffer solution containing 5 mmol of magnesium chloride. 1 mmol of DTT, 1% NP 40, 1 mmol of EDTA, 1 mmol of PMSF, 2 μmol of leupeptin, 2 μmol of pepstatin A and 2 μmol of antipain) and the supernatant was obtained by high-velocity centrifugation of 12,000 g×5 minutes. The amount of the labeled radioisotope of the supernatent was measured and standardized to obtain a quantitative result in immunoprecipitation reaction and then. Y13-259, monoclonal antiboby specifically binding to Ras protein(Furth, M. E. et al., J. Virol, 1982, 43, 294) was added and reacted for 15 hours at 4° C. Protein A bound to goat anti-murine Immunoglobulin antibody-agarose suspension was added to the solution and reacted for 1 hour at 4° C. and then, to remove unspecific binding product, immunoprecipitates were washed with buffer solution(50 mM Tris chloride buffer solution containing 50 mmol of sodium chloride, 0.5% of sodium dioxycolate, 0.5% of NP 40 and 0.1% of SDS). The precipitates were boiled in reagent buffer solution for electrophoresis and then, electrophoresis was performed using 13.5% of SDS polyacrylamide gel. After electrophoresis, the gel was fixed and dried. Then, the gel was exposed to X-ray film, developed and printed. From the result of the experiment, intensities of band of protein with and without farnesyl of Ras protein were measured, and the concentration of reagent inhibiting 50% of farnesyl binding was defined as CIC50, an intracellular Ras farnesyl transferase inhibiting activity.

[3] = target: T2, Geranylgeranyl transferase (Bos taurus, UniProt P29702+Q5EAD5); assay: Geranylgeranyl transferase inhibiting activity (geranylgeranyl pyrophosphate, Ras-CVIL substrate); format: biochemical; details: geranylgeranyl transferase purified from bovine brain, read-out: GGtase IC50
T2 construct: Geranylgeranyl transferase was purified from bovine brain; from tissue; host or cells: bovine brain
Method: To evaluate the selective enzyme inhibiting activity of the compound according to the present invention, inhibiting activity on geranylgeranyl transferase was measured. Geranylgeranyl transferase was purified from bovine brain with the method modified from Schber's method(Schber et al., J. Biol. Chem. 1990, 265, 14701). and substantially the same experiment as that of farnesyl transferase was performed using geranylgeranyl pyrophosphate and Ras-CVIL substrate protein under the similar condition to farnesyl transferase reaction.

Row | SMILES | IC50 [1] [µM] | IC50 [2] [µM] | IC50 [3] [µM]
1 | O=C(OCc1ccccc1)N1CCC(Cn2cncc2CN2C(=O)CN(Cc3cccc4ccccc34)C2=O)CC1 [Compound 76, 4-[5-(3-naphthalen-1-ylmethyl-2,5-dioxo-imidazolidin-1-ylmethyl)-imidazol-1-ylmethyl]-piperidine-1-carboxylic acid benzyl ester] | 5 | > 50 | > 10
2 | COCCNC(=O)c1ccc(CN2C(=O)N(CCCn3ccnc3)C(=O)C2(C)c2cccc3ccccc23)cc1 (stereo not drawn) [Compound 41, 4-[3-(3-imidazol-1-yl-propyl)-5-methyl-5-naphthalen-1-yl-2,4-dioxo-imidazolidin-1-ylmethyl]-N-(2-methoxy-ethyl)-benzamide] | 0.53 | < 20 | > 10
3 | CC1(c2cccc3ccccc23)C(=O)N(CCCn2ccnc2)C(=O)N1Cc1ccc(S(C)(=O)=O)c(C#N)c1 (stereo not drawn) [Compound 30, 5-[3-(3-imidazol-1-yl-propyl)-5-methyl-5-naphthalen-1-yl-2,4-dioxo-imidazolidin-1-ylmethyl]-2-methylsulfonyl-benzonitrile] | 0.725 | < 20 | > 10
4 | N#Cc1ccc(Cn2cncc2CN2C(=O)CN(Cc3cccc4ccccc34)C2=O)cc1 [Compound 75, 4-[5-(3-naphthalen-1-ylmethyl-2,5-dioxo-imidazolidin-1-ylmethyl)-imidazol-1-ylmethyl]-benzonitrile] | 0.03 | > 50 | > 10
5 | CC1(c2cccc3ccccc23)C(=O)N(CCCc2cncn2Cc2ccc(C#N)cc2)C(=O)N1C(=O)c1ccco1 (stereo not drawn) [Compound 56, 4-(5-{3-[3-(furan-2-carbonyl)-4-methyl-4-naphthalen-1-yl-2,5-dioxo-imidazolidin-1-yl]-propyl}-imidazol-1-ylmethyl)-benzonitrile] | 0.08 | < 20 | > 10
6 | COC(=O)C(CCSC)NC(=O)CN1C(=O)N(Cc2cnc[nH]2)C(=O)C1(C)c1cccc2ccccc12 (stereo not drawn) [Compound 5, 2-{2-[3-(3H-imidazol-4-yl-methyl)-5-methyl-5-naphthaten-1-yl-2,4-dioxo-imidazolidin-1-yl]-acetylamino}-4-methylsulfanyl-butyric acid methyl ester] | 190 | 10 | > 10
7 | CC1(c2cccc3ccccc23)NC(=O)N(CCCc2cncn2Cc2ccc(Br)cc2)C1=O (stereo not drawn) [Compound 68, 3-{3-[3-(4-bromo-benzyl)-3H-imidazol-4-yl]-propyl}-5-methyl-5-naphthalen-1-yl-imidazolidin-2,4-dione] | 5 | < 20 | > 10
8 | CC1(c2cccc3ccccc23)C(=O)N(CCCn2ccnc2)C(=O)N1Cc1ccc(Br)cc1 (stereo not drawn) [Compound 21, 1-(4-bromo-benzyl)-3-(3-imidazol-1-yl-propyl)-5-methyl-5-naphthalen-1-yl-imidazolidin-2,4-dione] | 0.15 | < 20 | > 10
9 | CC1(c2cccc3ccccc23)C(=O)N(CCCn2ccnc2)C(=O)N1C(=O)N1CCOCC1 (stereo not drawn) [Compound 65, 3-(3-imidazol-1-yl-propyl)-5methyl-1-(morpholine-4-carbonyl)-5-naphthalen-1-yl-imidazolidin-2,4-dione] | 4.5 | < 20 | > 10
10 | CC1(c2ccccc2)C(=O)N(CCCn2ccnc2)C(=O)N1Cc1cccc(C#N)c1 (stereo not drawn) [Compound 71, 3-[3-(3-imidazol-1-yl-propyl)-5-methyl-5-phenyl-2,4-dioxo-imidazolidin-1-ylmethyl]-benzonitrile] | 7 | < 20 | > 10
11 | CC1(c2cccc3ccccc23)C(=O)N(CCCn2ccnc2)C(=O)N1Cc1cccc(C(=O)N2CCSCC2)c1 (stereo not drawn) [Compound 44, 3-(3-imidazol-1-yl-propyl)-1-[3-(thiomorpholine-4-carbonyl)-benzyl]-5-methyl-5-naphthalen-1-yl-imidazolidin-2,4-dione] | 8 | < 20 | > 10
